Common to all, as to assay type: biochemical
One test concerns the target T1, human Axl (Homo sapiens, UniProt P30530).
T1 construct: GST (N); made in house; host or cells: Sf9 insect cells (baculovirus)
T1 sequence (P30530 473-894 limits assumed): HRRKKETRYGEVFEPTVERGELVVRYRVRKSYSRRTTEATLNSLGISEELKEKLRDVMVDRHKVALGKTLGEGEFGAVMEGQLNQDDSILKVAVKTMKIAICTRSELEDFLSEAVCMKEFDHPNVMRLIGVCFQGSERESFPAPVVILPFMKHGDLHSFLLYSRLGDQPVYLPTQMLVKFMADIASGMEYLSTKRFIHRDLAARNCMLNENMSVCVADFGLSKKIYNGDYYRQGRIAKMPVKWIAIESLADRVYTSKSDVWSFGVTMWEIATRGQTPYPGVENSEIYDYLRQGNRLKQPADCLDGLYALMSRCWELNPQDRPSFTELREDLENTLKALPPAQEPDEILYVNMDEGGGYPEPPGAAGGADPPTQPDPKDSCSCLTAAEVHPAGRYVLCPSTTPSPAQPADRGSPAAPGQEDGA
The test is described as follows: Kinase enzymatic activity assay (33P-radiolabeled phosphate transfer), Axl. Particulars: recombinant human Axl (473-end), poly(4:1 glu:tyr) substrate, 30 minutes. Summed up:
(§1)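 GST-tagged human Tyro3 (455-end), Axl (473-end) and Mer (578-872) from Sf9 cells, with poly(Glu:Tyr) 4:1 substrate, in MOPS pH 7.2 buffer with MgCl2. [33P]-ATP added from a 250 µM cocktail; reaction 30 min at room temperature, filter-captured counts, duplicates. IC50 derived from % inhibition over a compound serial dilution.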

Another test has as its target T2, human Mer (Homo sapiens, UniProt Q12866).
T2 construct: GST (N); made in house; host or cells: Sf9 insect cells (baculovirus)
T2 sequence (Q12866 578-872): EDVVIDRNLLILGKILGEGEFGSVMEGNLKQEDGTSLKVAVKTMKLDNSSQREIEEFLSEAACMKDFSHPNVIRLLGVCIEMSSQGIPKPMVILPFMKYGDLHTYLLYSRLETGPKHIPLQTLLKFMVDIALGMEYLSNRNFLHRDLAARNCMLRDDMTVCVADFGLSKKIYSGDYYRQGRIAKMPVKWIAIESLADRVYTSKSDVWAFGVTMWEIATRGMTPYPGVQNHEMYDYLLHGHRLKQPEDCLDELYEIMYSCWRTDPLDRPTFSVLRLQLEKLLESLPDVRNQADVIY
Nature of the test: Kinase enzymatic activity assay (33P-radiolabeled phosphate transfer), Mer. Particulars: recombinant human Mer (578-872), poly(4:1 glu:tyr) substrate, 30 minutes. In short, it runs like this: as §1

The target of a further test is T3, human Tyro3 (Homo sapiens, UniProt Q06418).
T3 construct: GST (N); made in house; host or cells: Sf9 insect cells (baculovirus)
T3 sequence (Q06418 455-890 limits assumed): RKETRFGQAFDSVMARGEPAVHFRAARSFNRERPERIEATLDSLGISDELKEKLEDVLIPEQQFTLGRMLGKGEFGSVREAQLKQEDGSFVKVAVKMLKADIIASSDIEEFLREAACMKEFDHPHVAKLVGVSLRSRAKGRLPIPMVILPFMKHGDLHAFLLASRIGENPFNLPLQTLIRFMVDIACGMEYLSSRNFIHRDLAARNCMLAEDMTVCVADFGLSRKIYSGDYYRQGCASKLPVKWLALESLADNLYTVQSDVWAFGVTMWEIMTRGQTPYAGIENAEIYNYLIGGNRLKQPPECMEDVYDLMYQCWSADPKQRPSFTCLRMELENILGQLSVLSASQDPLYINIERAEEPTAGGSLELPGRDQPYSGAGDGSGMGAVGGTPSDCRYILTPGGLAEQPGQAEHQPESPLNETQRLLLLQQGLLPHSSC
Nature of the test: Kinase enzymatic activity assay (33P-radiolabeled phosphate transfer), Tyro3. The note with it: recombinant human Tyro3 (455-end), poly(4:1 glu:tyr) substrate, 30 minutes. In short, it runs like this: as §1

A value given as a limit tells only on which side of the number the result lay.

What is called IC50 is the point on the concentration scale where inhibition reaches its midpoint. For `CN1CCC(COc2cc(OC3CCOCC3)c3c(Oc4ccc(F)cc4Cl)ncnc3c2)CC1` [Example 4.7, 4-(2-chloro-4-fluorophenoxy)-7-((1-methylpiperidin-4-yl)methoxy)-5-((tetrahydro-2H-pyran-4-yl)oxy)quinazoline], the half-maximal inhibitory concentration (IC50) on human Axl was 500 to 1000 nM; on human Mer it was less than 500 nM; on human Tyro3, less than 500 nM.
Turning to `Fc1ccc(Oc2ncnc3cc(OCCCN4CCOCC4)cc(N4CCOCC4)c23)c(Cl)c1` [Example 4.8, 4-(3-((4-(2-chloro-4-fluorophenoxy)-5-morpholinoquinazolin-7-yl)oxy)propyl)morpholine], the results for the IC50 on human Axl, on human Mer and at human Tyro3 were greater than 10000 nM, 1000 to 10000 nM and 1000 to 10000 nM, respectively.
As for `CN1CCN(c2cc(OCCCN3CCOCC3)cc3ncnc(Oc4ccc(F)cc4Cl)c23)CC1` [Example 4.9, 4-(3-((4-(2-chloro-4-fluorophenoxy)-5-(4-methylpiperazin-1-yl)quinazolin-7-yl)oxy)propyl)morpholine], the IC50 on human Axl is greater than 10000 nM; on human Mer, 1000 to 10000 nM; at human Tyro3, less than 500 nM.
As for `CN1CCC(COc2cc(OC3CCOCC3)c3c(Oc4cccc(C(F)(F)F)c4)ncnc3c2)CC1` [Example 4.10, 7-((1-methylpiperidin-4-yl)methoxy)-5-((tetrahydro-2H-pyran-4-yl)oxy)-4-(3-(trifluoromethyl)phenoxy)quinazoline], the results for the IC50 at human Axl, at human Mer and on human Tyro3 were 500 to 1000 nM, 500 to 1000 nM and less than 500 nM, respectively.
Consider `CN1CCC(COc2cc(OC3CCOCC3)c3c(Oc4ccc(C(F)(F)F)cc4)ncnc3c2)CC1` [Example 4.11, 7-((1-methylpiperidin-4-yl)methoxy)-5-((tetrahydro-2H-pyran-4-yl)oxy)-4-(4-(trifluoromethyl)phenoxy)quinazoline], for which the IC50 is less than 500 nM on human Axl, 500 to 1000 nM at human Mer and less than 500 nM on human Tyro3.
Consider `OC[C@@H](O)COc1cc(OC2CCOCC2)c2c(Oc3ccc(F)cc3Cl)ncnc2c1` [Example 5, (R)-3-((4-(2-chloro-4-fluorophenoxy)-5-((tetrahydro-2H-pyran-4-yl)oxy)quinazolin-7-yl)oxy)propane-1,2-diol], for which the IC50 on human Axl lay within 1000 to 10000 nM; at human Mer it was 500 to 1000 nM; on human Tyro3, 500 to 1000 nM.
With `CC(C)Oc1ncnc2cc(OCC3CCN(C)CC3)cc(OC3CCOCC3)c12` [Example 6, 4-isopropoxy-7-((1-methylpiperidin-4-yl)methoxy)-5-((tetrahydro-2H-pyran-4-yl)oxy)quinazoline], the IC50 at human Axl, on human Mer and at human Tyro3 was less than 500 nM throughout.
In the case of `CCN(CC)CCNc1cc(OC2CCOCC2)c2c(Nc3nc(C(F)(F)F)cs3)ncnc2c1` [Example 7, N^7-(2-(diethylamino)ethyl)-5-((tetrahydro-2H-pyran-4-yl)oxy)-N^4-(4-(trifluoromethyl)thiazol-2-yl)quinazoline-4,7-diamine], the IC50 is 1000 to 10000 nM at human Axl, greater than 10000 nM at human Mer and greater than 10000 nM on human Tyro3.
For `CN1CCC(COc2cc(OC3CCOCC3)c3c(Nc4ncn[nH]4)ncnc3c2)CC1` [Example 8, 7-((1-methylpiperidin-4-yl)methoxy)-5-((tetrahydro-2H-pyran-4-yl)oxy)-N-(1H-1,2,4-triazol-5-yl)quinazolin-4-amine], the IC50 at human Axl, at human Mer and at human Tyro3 was greater than 10000 nM throughout.
